PubChem BioAssay (NCI)
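A five-concentration, 48-hour dose response in 96-well plates underlies each endpoint, interpolated linearly between surrounding concentrations. The concentration for 50% growth inhibition is given as GI50. TGI is the concentration that stops growth completely.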

Assays:
Assay in all cases: NCI-60 cell line screen, 48 h
SK-MEL-5 melanoma = test system: SK-MEL-5 melanoma
HCT-116 colon = test system: HCT-116 colon
DU-145 prostate = test system: DU-145 prostate
OVCAR-5 ovarian = test system: OVCAR-5 ovarian
IGROV1 ovarian = test system: IGROV1 ovarian
SF-539 CNS = test system: SF-539 CNS
RPMI-8226 leukemia = test system: RPMI-8226 leukemia
A549 NSCLC = test system: A549 NSCLC
786-0 renal = test system: 786-0 renal
CCRF-CEM leukemia = test system: CCRF-CEM leukemia
OVCAR-3 ovarian = test system: OVCAR-3 ovarian
PC-3 prostate = test system: PC-3 prostate
SK-OV-3 ovarian = test system: SK-OV-3 ovarian
NCI-H226 lung = test system: NCI-H226 lung
KM12 colon = test system: KM12 colon
CAKI-1 renal = test system: CAKI-1 renal
SN12C renal = test system: SN12C renal
SNB-75 CNS = test system: SNB-75 CNS
HCC-2998 colon = test system: HCC-2998 colon
HL-60(TB) leukemia = test system: HL-60(TB) leukemia
M14 melanoma = test system: M14 melanoma
K-562 leukemia = test system: K-562 leukemia
T-47D breast = test system: T-47D breast
NCI-H23 lung = test system: NCI-H23 lung
NCI-H460 lung = test system: NCI-H460 lung
TK-10 renal = test system: TK-10 renal
MCF7 breast = test system: MCF7 breast
HS 578T breast = test system: HS 578T breast
MOLT-4 leukemia = test system: MOLT-4 leukemia
U251 CNS = test system: U251 CNS
HOP-62 NSCLC = test system: HOP-62 NSCLC
HOP-92 NSCLC = test system: HOP-92 NSCLC
SK-MEL-28 melanoma = test system: SK-MEL-28 melanoma
MALME-3M melanoma = test system: MALME-3M melanoma
SNB-19 CNS = test system: SNB-19 CNS
BT-549 breast = test system: BT-549 breast
HT29 colon = test system: HT29 colon
A498 renal = test system: A498 renal
LOX IMVI melanoma = test system: LOX IMVI melanoma
COLO 205 colon = test system: COLO 205 colon
NCI-H522 lung = test system: NCI-H522 lung
MDA-MB-468 breast = test system: MDA-MB-468 breast
ACHN renal = test system: ACHN renal
OVCAR-4 ovarian = test system: OVCAR-4 ovarian
HCT-15 colon = test system: HCT-15 colon
SW-620 colon = test system: SW-620 colon
RXF 393 renal = test system: RXF 393 renal
MDA-MB-231 breast = test system: MDA-MB-231 breast
SK-MEL-2 melanoma = test system: SK-MEL-2 melanoma
OVCAR-8 ovarian = test system: OVCAR-8 ovarian
NCI/ADR-RES ovarian = test system: NCI/ADR-RES ovarian
SF-268 CNS = test system: SF-268 CNS
UACC-62 melanoma = test system: UACC-62 melanoma
MDA-MB-435 = test system: MDA-MB-435
SF-295 CNS = test system: SF-295 CNS
UACC-257 melanoma = test system: UACC-257 melanoma
UO-31 renal = test system: UO-31 renal
EKVX NSCLC = test system: EKVX NSCLC
SR leukemia = test system: SR leukemia

Work on `O=C(N/N=C/c1ccc(-c2ccc(O)cc2)o1)c1[nH]c2ccc(Br)cc2c1-c1ccccc1` yielded a GI50 (SK-MEL-5 melanoma) of 472 nM, a TGI (SK-MEL-5 melanoma) of 1690 nM and a GI50 (HCT-116 colon) of 393 nM. For the same compound, the TGI (HCT-116 colon) was 3550 nM, the GI50 (DU-145 prostate) was 366 nM and the TGI (DU-145 prostate) was 3850 nM. For the same compound, the GI50 (OVCAR-5 ovarian) was 515 nM, the TGI (OVCAR-5 ovarian) was 13800 nM and the GI50 (IGROV1 ovarian) was 617 nM. It also gave a TGI (IGROV1 ovarian) of 17800 nM, a GI50 (SF-539 CNS) of 240 nM and a TGI (SF-539 CNS) of 536 nM. It also gave a GI50 (RPMI-8226 leukemia) of 442 nM, a TGI (RPMI-8226 leukemia) of over 22200 nM and a GI50 (A549 NSCLC) of 987 nM. The TGI (A549 NSCLC) was 16200 nM, the GI50 (786-0 renal) was 1550 nM and the TGI (786-0 renal) was 8430 nM. It also gave a GI50 (CCRF-CEM leukemia) of 474 nM, a TGI (CCRF-CEM leukemia) of 26900 nM and a GI50 (OVCAR-3 ovarian) of 275 nM. It also gave a TGI (OVCAR-3 ovarian) of 873 nM, a GI50 (PC-3 prostate) of 569 nM and a TGI (PC-3 prostate) of 14100 nM. For the same compound, the GI50 (SK-OV-3 ovarian) was 493 nM, the TGI (SK-OV-3 ovarian) was 16800 nM and the GI50 (NCI-H226 lung) was 2950 nM. It also gave a TGI (NCI-H226 lung) of 22400 nM, a GI50 (KM12 colon) of 355 nM and a TGI (KM12 colon) of 4510 nM. It also gave a GI50 (CAKI-1 renal) of 969 nM, a TGI (CAKI-1 renal) of 15500 nM and a GI50 (SN12C renal) of 417 nM. It also gave a TGI (SN12C renal) of 2870 nM, a GI50 (SNB-75 CNS) of 3130 nM and a TGI (SNB-75 CNS) of 20000 nM. The GI50 (HCC-2998 colon) was 860 nM, the TGI (HCC-2998 colon) was 3670 nM and the GI50 (HL-60(TB) leukemia) was 257 nM. The TGI (HL-60(TB) leukemia) was 713 nM, the GI50 (M14 melanoma) was 3330 nM and the TGI (M14 melanoma) was 22800 nM. It also gave a GI50 (K-562 leukemia) of 371 nM, a TGI (K-562 leukemia) of 17900 nM and a GI50 (T-47D breast) of 2670 nM. For the same compound, the TGI (T-47D breast) was 26500 nM, the GI50 (NCI-H23 lung) was 378 nM and the TGI (NCI-H23 lung) was 12700 nM. For the same compound, the GI50 (NCI-H460 lung) was 342 nM, the TGI (NCI-H460 lung) was 1270 nM and the GI50 (TK-10 renal) was 4560 nM. It also gave a TGI (TK-10 renal) of 19600 nM, a GI50 (MCF7 breast) of 332 nM and a TGI (MCF7 breast) of 6660 nM. For the same compound, the GI50 (HS 578T breast) was 410 nM, the TGI (HS 578T breast) was 1290 nM and the GI50 (MOLT-4 leukemia) was 531 nM. For the same compound, the TGI (MOLT-4 leukemia) was 5040 nM, the GI50 (U251 CNS) was 419 nM and the TGI (U251 CNS) was 10300 nM. For the same compound, the GI50 (HOP-62 NSCLC) was 870 nM, the TGI (HOP-62 NSCLC) was 19200 nM and the GI50 (HOP-92 NSCLC) was 2750 nM. It also gave a TGI (HOP-92 NSCLC) of 11200 nM, a GI50 (SK-MEL-28 melanoma) of 1960 nM and a TGI (SK-MEL-28 melanoma) of 18000 nM. It also gave a GI50 (MALME-3M melanoma) of 2580 nM, a TGI (MALME-3M melanoma) of 22400 nM and a GI50 (SNB-19 CNS) of 577 nM. It also gave a TGI (SNB-19 CNS) of 14600 nM, a GI50 (BT-549 breast) of 415 nM and a TGI (BT-549 breast) of 3740 nM. The GI50 (HT29 colon) was 1920 nM, the TGI (HT29 colon) was 7020 nM and the GI50 (A498 renal) was 8210 nM. For the same compound, the TGI (A498 renal) was 21900 nM, the GI50 (LOX IMVI melanoma) was 356 nM and the TGI (LOX IMVI melanoma) was 3220 nM. For the same compound, the GI50 (COLO 205 colon) was 1900 nM, the TGI (COLO 205 colon) was 3930 nM and the GI50 (NCI-H522 lung) was 208 nM. For the same compound, the TGI (NCI-H522 lung) was 519 nM, the GI50 (MDA-MB-468 breast) was 318 nM and the TGI (MDA-MB-468 breast) was 2660 nM. For the same compound, the GI50 (ACHN renal) was 500 nM, the TGI (ACHN renal) was 8070 nM and the GI50 (OVCAR-4 ovarian) was 3560 nM. The TGI (OVCAR-4 ovarian) was 20800 nM, the GI50 (HCT-15 colon) was 354 nM and the TGI (HCT-15 colon) was 5300 nM. The GI50 (SW-620 colon) was 444 nM, the TGI (SW-620 colon) was 16100 nM and the GI50 (RXF 393 renal) was 414 nM. It also gave a TGI (RXF 393 renal) of 2180 nM, a GI50 (MDA-MB-231 breast) of 323 nM and a TGI (MDA-MB-231 breast) of 790 nM. It also gave a GI50 (SK-MEL-2 melanoma) of 378 nM, a TGI (SK-MEL-2 melanoma) of 3680 nM and a GI50 (OVCAR-8 ovarian) of 363 nM. For the same compound, the TGI (OVCAR-8 ovarian) was 900 nM, the GI50 (NCI/ADR-RES ovarian) was 292 nM and the TGI (NCI/ADR-RES ovarian) was 592 nM. It also gave a GI50 (SF-268 CNS) of 654 nM, a TGI (SF-268 CNS) of 12700 nM and a GI50 (UACC-62 melanoma) of 527 nM. For the same compound, the TGI (UACC-62 melanoma) was 15100 nM, the GI50 (MDA-MB-435) was 248 nM and the TGI (MDA-MB-435) was 602 nM. For the same compound, the GI50 (SF-295 CNS) was 611 nM, the TGI (SF-295 CNS) was 2900 nM and the GI50 (UACC-257 melanoma) was 4690 nM. For the same compound, the TGI (UACC-257 melanoma) was 23100 nM, the GI50 (UO-31 renal) was 2050 nM and the TGI (UO-31 renal) was 16200 nM. It also gave a GI50 (EKVX NSCLC) of 3440 nM, a TGI (EKVX NSCLC) of 15200 nM and a GI50 (SR leukemia) of 490 nM. The TGI (SR leukemia) was 3230 nM.
